According to patent US8044198B2, “Sirtuin modulating compounds” (Sirtris Pharmaceuticals, Inc., priority 2005, dated 2011):
Where two headings read alike, the source gives them in different places.

Biological target: T1, SIRT1 (Homo sapiens, UniProt Q96EB6)
T1 sequence (Q96EB6 1-747): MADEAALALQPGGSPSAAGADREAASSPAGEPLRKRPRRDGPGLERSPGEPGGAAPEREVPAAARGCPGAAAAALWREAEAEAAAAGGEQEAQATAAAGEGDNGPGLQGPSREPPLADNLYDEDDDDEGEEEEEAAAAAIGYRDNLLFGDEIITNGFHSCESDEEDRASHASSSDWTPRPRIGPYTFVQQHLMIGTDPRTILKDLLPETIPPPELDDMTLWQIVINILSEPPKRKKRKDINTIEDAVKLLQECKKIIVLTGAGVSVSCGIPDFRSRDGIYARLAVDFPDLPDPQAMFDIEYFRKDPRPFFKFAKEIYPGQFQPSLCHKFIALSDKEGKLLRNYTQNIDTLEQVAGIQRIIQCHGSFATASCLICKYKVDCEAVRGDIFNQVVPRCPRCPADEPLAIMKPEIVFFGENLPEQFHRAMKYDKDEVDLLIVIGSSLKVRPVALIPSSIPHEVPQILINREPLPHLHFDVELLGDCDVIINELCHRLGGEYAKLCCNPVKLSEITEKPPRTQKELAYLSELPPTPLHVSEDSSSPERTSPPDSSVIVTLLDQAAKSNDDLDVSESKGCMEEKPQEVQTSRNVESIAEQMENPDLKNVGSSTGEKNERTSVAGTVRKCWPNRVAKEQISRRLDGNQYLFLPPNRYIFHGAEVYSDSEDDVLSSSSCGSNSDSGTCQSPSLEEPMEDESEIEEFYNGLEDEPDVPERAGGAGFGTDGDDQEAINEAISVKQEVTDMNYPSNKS
Test: SIRT1 mass spectrometry (MS) based deacetylation assay; on FOLD ACT. MS: test concentration or dose not given here
Format: biochemical
Settings: for EC50: mass spectrometry assay, read-out: ED50 MS ASSAY

[1] = fold activation of SIRT1 as determined by MS
[2] = Sirt1 activators, fold activation as determined by MS
[3] = fold activation of SIRT1, mass spectrometry assay
[4] = SIRT1 fold activation as determined by MS

EC50 (SIRT1 activation) [µM]	FOLD ACT. MS [3]	SMILES	further results
5 to 50	–	COc1ccc(C(=O)Nc2cc(-c3nc4ncccc4o3)ccn2)cc1OC [Compound 63]	–
5 to 50	–	COc1ccc(C(=O)Nc2cccc(-c3cn4ccc(C)cc4n3)c2)c(OC)c1 [Compound 128]	FOLD ACT. MS [1]: B (B (Fold Activation <250%))
–	–	O=C(Nc1ccccc1-c1nc2ccccc2[nH]1)c1cnc2ccccc2n1 [Compound 508]	FOLD ACT. MS [2]: A (A (Fold activation >250%)); EC50 (Sirt1 activators): < 5 µM
> 150	–	O=C(NCc1ccc2c(c1)OCO2)c1cccc(-c2nc3ncccc3o2)c1 [Compound 103]	–
5 to 50	–	COc1ccc(C(=O)Nc2cccc(-c3csc(C)n3)c2)c(OC)c1 [Compound 81]	FOLD ACT. MS [1]: B (B (Fold Activation <250%))
5 to 50	–	COc1cccc(C(=O)Nc2cccc(-c3nc4cccnc4s3)c2)c1 [Compound 212]	FOLD ACT. MS [1]: B (B (Fold Activation <250%))
5 to 50	–	COc1ccc(C(=O)Nc2cc(C(=O)NCCN(C)C)cc(-c3nc4ncccc4o3)c2)c(OC)c1 [Compound 155]	FOLD ACT. MS [1]: B (B (Fold Activation <250%))
5 to 50	B (B (Fold Activation <250%))	O=C(Nc1ccccc1-c1cn2c(CN3CCNCC3)csc2n1)c1cccs1 [Compound 446]	–
< 5	B (B (Fold Activation <250%))	COc1cc(C(=O)Nc2ccccc2-c2cc3ccccc3[nH]2)cc(OC)c1OC [Compound 255]	–
5 to 50	–	COc1cc(C(=O)Nc2cccc(-c3nc4ncccc4o3)n2)cc(OC)c1OC [Compound 57]	–
5 to 50	–	CN(C)c1cccc(C(=O)Nc2cccc(-c3nc4ncccc4[nH]3)c2)c1 [Compound 183]	FOLD ACT. MS [1]: A (A (Fold activation >250%))
5 to 50	B (B (Fold Activation <250%))	COc1ccc(C(=O)Nc2ccccc2-c2cn3ccccc3n2)c(OC)c1 [Compound 265]	–
–	–	CN(C)c1cccc(C(=O)Nc2ccccc2-c2cn3cccnc3n2)c1 [Compound 504]	FOLD ACT. MS [2]: B (B (Fold Activation <250%)); EC50 (Sirt1 activators): 5 to 50 µM
< 5	B (B (Fold Activation <250%))	CN(C)c1cccc(C(=O)Nc2cccc(-c3nc4cnccc4s3)c2)c1 [Compound 402]	–
5 to 50	–	O=C(Nc1ccccc1-c1nc2ccc(CN3CCNCC3)nc2s1)c1ccc(F)c(F)c1 [Compound 728]	FOLD ACT. MS [4]: A (A (Fold activation >250%))
–	–	COc1cc(C(=O)Nc2cc(-c3nc4ncccc4o3)ccn2)ccc1CN1CCOCC1 [Compound 642]	FOLD ACT. MS [2]: B (B (Fold Activation <250%)); EC50 (Sirt1 activators): > 150 µM
< 5	B (B (Fold Activation <250%))	CN(C)c1cccc(C(=O)Nc2ccccc2-c2nc3ccncc3o2)c1 [Compound 458]	–
101 to 150	–	CN(C)CCNC(=O)c1cc(NC(=O)c2cccc(N(C)C)c2)cc(-c2nc3ncccc3o2)c1 [Compound 154]	FOLD ACT. MS [1]: A (A (Fold activation >250%))
5 to 50	B (B (Fold Activation <250%))	COc1ccc(C(=O)Nc2ccccc2-c2nc3cnccc3o2)c(OC)c1OC [Compound 421]	–
> 150	–	S=C(Nc1ccc2c(c1)OCO2)Nc1cccc(-c2nc3ncccc3o2)n1 [Compound 147]	–
–	–	COc1ccc(C(=O)Nc2ccccc2-c2cn3c(n2)CCCC3)cc1OC [Compound 545]	FOLD ACT. MS [2]: B (B (Fold Activation <250%)); EC50 (Sirt1 activators): 5 to 50 µM
–	–	O=C(Nc1ccccc1-c1cn2c(CN3CCNCC3)csc2n1)c1c[nH]nc1-c1ccccc1 [Compound 512]	FOLD ACT. MS [2]: A (A (Fold activation >250%)); EC50 (Sirt1 activators): < 5 µM
5 to 50	B (B (Fold Activation <250%))	COc1ccc(C(=O)Nc2cccc(-c3nc4cnccc4o3)c2)c(OC)c1 [Compound 296]	–
5 to 50	B (B (Fold Activation <250%))	COc1cc(OC)cc(C(=O)Nc2ccc(-c3nc4cnccc4s3)cc2)c1 [Compound 323]	–
–	–	COc1cc(OC)cc(C(=O)Nc2ccccc2-c2nc3cccnc3[nH]2)c1 [Compound 521]	FOLD ACT. MS [2]: B (B (Fold Activation <250%)); EC50 (Sirt1 activators): < 5 µM
5 to 50	–	COc1ccc(C(=O)Nc2cccc(-c3nc4ncccc4s3)c2)cc1OC [Compound 201]	FOLD ACT. MS [1]: B (B (Fold Activation <250%))
–	–	COc1cc(C(=O)Nc2ccccc2-c2nc3ncccc3o2)ccc1CN1CCCCC1 [Compound 585]	FOLD ACT. MS [2]: B (B (Fold Activation <250%)); EC50 (Sirt1 activators): 5 to 50 µM

EC50 (SIRT1 activation) [µM]	FOLD ACT. MS [3]	SMILES	further results
5 to 50	–	O=C(Nc1ccc2c(c1)OCO2)Nc1cccc(-c2nc3ncccc3o2)n1 [Compound 71]	FOLD ACT. MS [1]: B (B (Fold Activation <250%))
–	–	COc1cc(C(=O)Nc2cc(-c3nc4ncccc4o3)ccn2)ccc1CN1CCCCC1 [Compound 571]	FOLD ACT. MS [2]: B (B (Fold Activation <250%)); EC50 (Sirt1 activators): 5 to 50 µM
< 5	B (B (Fold Activation <250%))	O=C(Nc1cccc(-c2nc3ccncc3s2)c1)c1cccs1 [Compound 223]	–
< 5	–	CN(C)c1cccc(C(=O)Nc2ccccc2-c2nc3cc(CN4CCOCC4)cnc3s2)c1 [Compound 686]	FOLD ACT. MS [4]: A (A (Fold activation >250%))
–	–	COc1ccc(C(=O)Nc2ccccc2-c2nc3cccnc3[nH]2)cc1 [Compound 531]	FOLD ACT. MS [2]: B (B (Fold Activation <250%)); EC50 (Sirt1 activators): < 5 µM
–	–	S=C(Nc1ccc(-n2cccn2)cc1)Nc1cccc(-c2nc3ccncc3s2)c1 [Compound 481]	EC50 (Sirt1 activators): 5 to 50 µM
5 to 50	–	COc1cc(C(=O)Nc2ccccc2-c2cn3c(CN4CCOCC4)csc3n2)cc(OC)c1OC [Compound 210]	FOLD ACT. MS [1]: B (B (Fold Activation <250%))
–	–	O=C1CN(Cc2csc3nc(-c4ccccc4NC(=O)c4cnc5ccccc5n4)cn23)CCN1 [Compound 677]	FOLD ACT. MS [2]: A (A (Fold activation >250%)); EC50 (Sirt1 activators): < 5 µM
5 to 50	B (B (Fold Activation <250%))	COc1ccc(C(=O)Nc2ccccc2-c2cn3c(CN4CCNCC4)csc3n2)c(OC)c1 [Compound 326]	–
< 5	–	O=C(Nc1ccccc1-c1cn2c(CN3CCNCC3)csc2n1)c1cccc(-c2cc[nH]n2)c1 [Compound 733]	FOLD ACT. MS [4]: A (A (Fold activation >250%))
5 to 50	–	COc1ccc(C(=O)Nc2cncc(-c3nc4ncccc4o3)c2)cc1OC [Compound 67]	–
–	–	COc1cc(C(=O)Nc2cc(-c3nc4ncccc4o3)ccn2)ccc1CN1CCNCC1 [Compound 638]	FOLD ACT. MS [2]: B (B (Fold Activation <250%)); EC50 (Sirt1 activators): > 150 µM
5 to 50	–	COc1ccc(C(=O)Nc2cccc(-c3nc4ccccc4s3)c2)c(OC)c1 [Compound 124]	FOLD ACT. MS [1]: B (B (Fold Activation <250%))
< 5	B (B (Fold Activation <250%))	COc1ccc(C(=O)Nc2ccc(-c3nc4cnccc4o3)s2)cc1OC [Compound 423]	–
< 5	A (A (Fold activation >250%))	O=C(Nc1ccccc1-c1cn2c(CN3CCNCC3)csc2n1)c1cnc2ccccc2n1 [Compound 441]	–
< 5	–	COc1cc(OC)cc(C(=O)Nc2ccccc2-c2nc3ccccc3[nH]2)c1 [Compound 141]	FOLD ACT. MS [1]: B (B (Fold Activation <250%))
< 5	–	COc1cc(C)ccc1C(=O)Nc1ccc(-c2nc3cccnc3[nH]2)cc1 [Compound 149]	FOLD ACT. MS [1]: B (B (Fold Activation <250%))
–	–	COc1cc(C(=O)Nc2ccccc2-c2nc3ccccc3[nH]2)ccc1CN1CCNCC1 [Compound 558]	FOLD ACT. MS [2]: A (A (Fold activation >250%)); EC50 (Sirt1 activators): < 5 µM
–	–	O=C(Nc1ccccc1-c1cn2c(CN3CCCC3)csc2n1)c1cnc2ccccc2n1 [Compound 619]	FOLD ACT. MS [2]: B (B (Fold Activation <250%)); EC50 (Sirt1 activators): < 5 µM
< 5	B (B (Fold Activation <250%))	COc1ccc(C(=O)Nc2ncccc2-c2nc3ccccc3[nH]2)cc1OC [Compound 276]	–
< 5	B (B (Fold Activation <250%))	COc1cc(C(=O)Nc2ccc(-c3nc4cnccc4o3)s2)cc(OC)c1OC [Compound 426]	–
< 5	–	COc1ccc(C(=O)Nc2ccc(-c3nc4ncccc4s3)cc2)cc1OC [Compound 197]	FOLD ACT. MS [1]: B (B (Fold Activation <250%))
5 to 50	B (B (Fold Activation <250%))	COc1cc(C(=O)Nc2cccc(-c3cccnc3)c2)cc(OC)c1OC [Compound 333]	–
5 to 50	–	O=C(Nc1ccccc1-c1cn2c(COCC(O)CO)csc2n1)c1cnc2ccccc2n1 (centres unmarked) [Compound 699]	FOLD ACT. MS [4]: A (A (Fold activation >250%))
> 150	–	CN(C)c1ccc(NC(=O)Nc2cccc(-c3nc4ncccc4o3)n2)cc1 [Compound 87]	–
< 5	B (B (Fold Activation <250%))	CN(C)c1cccc(C(=O)Nc2ccccc2-c2nc3cnccc3s2)c1 [Compound 321]	–
< 5	B (B (Fold Activation <250%))	COc1ccc(C(=O)Nc2ccccc2-c2nc3ccncc3o2)c(OC)c1 [Compound 455]	–
